# Laboratory results taken from patent US20190216761A1, “COMPOSITIONS COMPRISING 15-HEPE AND METHODS OF USING THE SAME” (Afimmune Limited, priority 2015, published 2019).
# Residue numbers refer to the chain shown, from its start. Marks after values point to notes of the source that are not given here.
# Tests used:
# [1] = tested on: rPPARδ; test: PPAR agonist reporter assay (Gal4 hybrid receptor, luciferase); format: cell-based, rat
# Protocol: (§1) This study utilized proprietary reporter cells expressing a hybrid receptor comprising the N-terminal Gal4 DNA binding domain fused to the ligand binding domain of the specific human nuclear receptor (hPPARα, hPPARδ, and hPPARγ) and rat nuclear receptor (rPPARα, rPPARδ, and rPPARγ). The reporter vectors used in this Example comprise the firefly luciferase gene functionally linked to the Gal4 upstream activation sequence.
# Nuclear Receptor assay was performed by dispensing 100 μL of a suspension of Reporter Cells in Cell Recovery Medium (CRM) containing 10% charcoal stripped FBS into each well of a white 96-well plate. Test compounds were diluted using compound screening medium (CSM) containing 10% charcoal stripped FBS to generate “2×-concentration” treatment media. Immediately after this dilution step, 100 μL of each diluted 2×-concentration treatment medium was dispensed (in triplicate) into the Reporter Cell-containing assay wells.
# After incubation at 37° C. for 24 hours, the treatment media was discarded. 100 μL of Luciferase Detection Reagent substrate was added to each well and RLUs were quantified from each well to determine nuclear receptor activities.
# [2] = target: T1, hPPARγ (Homo sapiens, UniProt P37231); test: PPAR antagonist reporter assay (reference agonist at EC80); format: cell-based
# T1 construct: expressed in transfected cells
# T1 sequence (P37231 238-503 limits assumed): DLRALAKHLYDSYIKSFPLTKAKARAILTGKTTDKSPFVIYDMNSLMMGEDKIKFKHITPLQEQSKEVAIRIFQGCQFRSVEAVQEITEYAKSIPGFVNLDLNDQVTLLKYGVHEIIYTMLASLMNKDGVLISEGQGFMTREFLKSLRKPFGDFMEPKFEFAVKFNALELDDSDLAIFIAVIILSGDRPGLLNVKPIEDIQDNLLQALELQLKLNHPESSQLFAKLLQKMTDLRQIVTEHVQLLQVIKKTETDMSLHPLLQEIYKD
# Protocol: as §1
# (§2) Nuclear Receptor assay was performed by suspending Reporter Cells in CRM containing 10% charcoal stripped FBS. 2×-EC80 concentrations of the appropriate reference agonist were then added to the Reporter Cell suspension, and 100 μL of the mixture dispensed into wells of a white 96-well plate. Test compounds were diluted using compound screening medium (CSM) containing 10% charcoal stripped FBS to generate “2×-concentration” treatment media. Immediately after this dilution step, 100 μL of each diluted 2×-concentration treatment medium was dispensed (in triplicate) into the Reporter Cell-containing assay wells.
# (§3) After incubation at 37° C. for 24 hours, the treatment media was discarded. Each well was rinsed once with LCM Buffer; LCM substrate was then added. After incubation for 30 minutes at 37° C., fluorescence was measured to determine the relative number of live cells per assay well. LCM substrate was then discarded and 100 μL of Luciferase Detection Reagent substrate was added to each well. RLUs were quantified from each well to determine nuclear receptor activities.
# [3] = target: T2, rPPARα (Rattus norvegicus, UniProt P37230); test: as above; format: cell-based
# T2 construct: expressed in transfected cells
# T2 sequence (P37230 239-466 limits assumed): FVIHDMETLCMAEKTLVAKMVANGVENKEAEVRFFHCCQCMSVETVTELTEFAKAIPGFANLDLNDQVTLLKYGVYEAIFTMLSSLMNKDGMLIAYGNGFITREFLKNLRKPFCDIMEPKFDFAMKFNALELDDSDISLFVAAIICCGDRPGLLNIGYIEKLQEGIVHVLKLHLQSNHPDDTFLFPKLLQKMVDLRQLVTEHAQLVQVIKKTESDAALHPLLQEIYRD
# Protocol: as §1, §2, §3
# [4] = target: T3, hPPARα (Homo sapiens, UniProt Q07869); test: as above; format: cell-based
# T3 construct: expressed in transfected cells
# T3 sequence (Q07869 239-466 limits assumed): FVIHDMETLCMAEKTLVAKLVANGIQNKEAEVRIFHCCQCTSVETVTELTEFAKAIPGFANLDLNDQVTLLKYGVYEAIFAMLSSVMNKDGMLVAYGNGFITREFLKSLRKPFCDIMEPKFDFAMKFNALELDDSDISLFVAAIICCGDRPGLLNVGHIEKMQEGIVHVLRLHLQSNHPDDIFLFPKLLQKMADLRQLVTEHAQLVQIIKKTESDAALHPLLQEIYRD
# Protocol: as §1, §2, §3
# [5] = target: T4, rPPARγ (Rattus norvegicus, UniProt O88275); test: as above; format: cell-based
# T4 construct: expressed in transfected cells
# T4 sequence (O88275 238-503 limits assumed): T1 sequence (P37231 238-503 limits assumed) with S93N, V98I, L226V, Q245H
# Protocol: as §1, §2, §3
compound,measurement,setting,value
"CC/C=C\C[C@H](O)/C=C/C=C\C/C=C\C/C=C\CCCC(=O)OCC [15-HEPE-EE, 15-HEPE ethyl ester]",Fold-Activation (vs. 0.10% DMSO) rPPAR-δ,[1]; 137 nM,1.3 fold
same,Fold-Activation (vs. 0.10% DMSO) rPPAR-δ,[1]; 412 nM,1.5 fold
same,Fold-Activation (vs. 0.10% DMSO) rPPAR-δ,"[1]; 1,235 nM",1.6 fold
same,Fold-Activation (vs. 0.10% DMSO) rPPAR-δ,"[1]; 3,704 nM",1.8 fold
same,Fold-Activation (vs. 0.10% DMSO) rPPAR-δ,"[1]; 11,111 nM",2.4* fold
same,Fold-Activation (vs. 0.10% DMSO) rPPAR-δ,"[1]; 33,333 nM",2.7* fold
same,Fold-Activation (vs. 0.10% DMSO) rPPAR-δ,"[1]; 100,000 nM",7.2* fold
same,Fold-Activation (vs. 0.10% DMSO) rPPAR-δ,"[1]; 300,000 nM",1.9 fold
same,agonism activity against rat PPARδ (in words),[1]; at medium to higher doses in the dose response curve,mild to moderate agonism activity
same,"% Inhibition of agonist-stimulated receptor activity vs. 0.10% DMSO, hPPAR-γ",[2]; 137 nM,17%
same,"% Inhibition of agonist-stimulated receptor activity vs. 0.10% DMSO, hPPAR-γ",[2]; 412 nM,0.87%
same,"% Inhibition of agonist-stimulated receptor activity vs. 0.10% DMSO, hPPAR-γ","[2]; 1,235 nM",−1.4%
same,"% Inhibition of agonist-stimulated receptor activity vs. 0.10% DMSO, hPPAR-γ","[2]; 3,704 nM",−4.6%
same,"% Inhibition of agonist-stimulated receptor activity vs. 0.10% DMSO, hPPAR-γ","[2]; 11,111 nM",−0.42%
same,"% Inhibition of agonist-stimulated receptor activity vs. 0.10% DMSO, hPPAR-γ","[2]; 33,333 nM",5.2%
same,"% Inhibition of agonist-stimulated receptor activity vs. 0.10% DMSO, hPPAR-γ","[2]; 100,000 nM",44%
same,"% Inhibition of agonist-stimulated receptor activity vs. 0.10% DMSO, hPPAR-γ","[2]; 300,000 nM",100%
same,"inhibition of human PPARs (in words), hPPARγ",[2]; at higher test concentrations,apparent inhibition
same,"% Inhibition of agonist-stimulated receptor activity vs. 0.10% DMSO, rPPAR-α",[3]; 137 nM,42%
same,"% Inhibition of agonist-stimulated receptor activity vs. 0.10% DMSO, rPPAR-α",[3]; 412 nM,26%
same,"% Inhibition of agonist-stimulated receptor activity vs. 0.10% DMSO, rPPAR-α","[3]; 1,235 nM",25%
same,"% Inhibition of agonist-stimulated receptor activity vs. 0.10% DMSO, rPPAR-α","[3]; 3,704 nM",21%
same,"% Inhibition of agonist-stimulated receptor activity vs. 0.10% DMSO, rPPAR-α","[3]; 11,111 nM",21%
same,"% Inhibition of agonist-stimulated receptor activity vs. 0.10% DMSO, rPPAR-α","[3]; 33,333 nM",38%
same,"% Inhibition of agonist-stimulated receptor activity vs. 0.10% DMSO, rPPAR-α","[3]; 100,000 nM",79%
same,"% Inhibition of agonist-stimulated receptor activity vs. 0.10% DMSO, rPPAR-α","[3]; 300,000 nM",100%
same,"inhibition of rat PPARs (in words), rPPARα",[3]; at higher test concentrations,apparent inhibition
same,"% Inhibition of agonist-stimulated receptor activity vs. 0.10% DMSO, hPPAR-α",[4]; 137 nM,49%
same,"% Inhibition of agonist-stimulated receptor activity vs. 0.10% DMSO, hPPAR-α",[4]; 412 nM,21%
same,"% Inhibition of agonist-stimulated receptor activity vs. 0.10% DMSO, hPPAR-α","[4]; 1,235 nM",13%
same,"% Inhibition of agonist-stimulated receptor activity vs. 0.10% DMSO, hPPAR-α","[4]; 3,704 nM",14%
same,"% Inhibition of agonist-stimulated receptor activity vs. 0.10% DMSO, hPPAR-α","[4]; 11,111 nM",14%
same,"% Inhibition of agonist-stimulated receptor activity vs. 0.10% DMSO, hPPAR-α","[4]; 33,333 nM",26%
same,"% Inhibition of agonist-stimulated receptor activity vs. 0.10% DMSO, hPPAR-α","[4]; 100,000 nM",40%
same,"% Inhibition of agonist-stimulated receptor activity vs. 0.10% DMSO, hPPAR-α","[4]; 300,000 nM",83%
same,"inhibition of human PPARs (in words), hPPARα",[4]; at higher test concentrations,apparent inhibition
same,"% Inhibition of agonist-stimulated receptor activity vs. 0.10% DMSO, rPPAR-γ",[5]; 137 nM,10%
same,"% Inhibition of agonist-stimulated receptor activity vs. 0.10% DMSO, rPPAR-γ",[5]; 412 nM,−13%
same,"% Inhibition of agonist-stimulated receptor activity vs. 0.10% DMSO, rPPAR-γ","[5]; 1,235 nM",−7.6%
same,"% Inhibition of agonist-stimulated receptor activity vs. 0.10% DMSO, rPPAR-γ","[5]; 3,704 nM",−6.7%
same,"% Inhibition of agonist-stimulated receptor activity vs. 0.10% DMSO, rPPAR-γ","[5]; 11,111 nM",−4.1%
same,"% Inhibition of agonist-stimulated receptor activity vs. 0.10% DMSO, rPPAR-γ","[5]; 33,333 nM",8.4%
same,"% Inhibition of agonist-stimulated receptor activity vs. 0.10% DMSO, rPPAR-γ","[5]; 100,000 nM",26%
same,"% Inhibition of agonist-stimulated receptor activity vs. 0.10% DMSO, rPPAR-γ","[5]; 300,000 nM",93%
same,"inhibition of rat PPARs (in words), rPPARγ",[5]; at higher test concentrations,apparent inhibition
